Test results: US20080014153A1, “Topical Preparation For Application To The Skin Containing Natural Oil Of The Evening Primrose (Oenothera Biennis) (=Oleum Oenotherae) And Osmolytes Originating From Extremophilic Microorganisms” (priority 2004, published 2008)

Key:
[1] = test system: very dry, irritated and problematic skin; experiment: Tending effect of care product on skin; type: in vivo; conditions: 0.5% (wt. percent) ectoine in evening primrose oil containing product
[2] = 0.1% (wt. percent) added to evening primrose oil preparation; room temperature, 25° C.; first occurrence of rancid smell
Description: The stability of the preparation was assessed based on the first occurrence of a rancid smell of the evening primrose oil.

Compound | tending effect compared with evening primrose oil containing tending product of identical composition [1] | improved evening primrose oil storage stability compared to a check preparation without diglycerol phosphates [2]
CC1=NCC[C@@H](C(=O)O)N1 [ectoine] | noticeably better tending effect | –
diglycerol phosphate | – | five
